In patent US9540358B2, “Tricyclic compounds as anticancer agents” (ICAHN SCHOOL OF MEDICINE AT MOUNT SINAI, priority 2011, dated 2017):

System: H1650 lung cancer cells
Assay: Cell viability assay (MTT, IC50 determination)
Type: cell-based
Conditions: 48 hours after drug treatment, MTT
Description: 89(22): p. […] H1650 lung cancer cells were plated at 150,000 cells per well in a 12 well plate. Twenty-four hours after plating, cells were treated as described with increasing concentrations of drug and control. Forty-eight hours after drug treatment, cells were treated with 100 μL of 3-(4,5-Dimethylthiazol-2-yl)-2,5-diphenyltetrazolium bromide (MTT) and incubated for 2 hours at 37 C. The MTT solution was subsequently replaced with 300 μL of n-propyl alcohol and re-aliquoted to a 96 well plates. Spectrophotometric analysis of each solution was performed using a 96 well plate reader at 600 nm in triplicate.

IC50	IC50 (Cell Viability Data)	SMILES
30 µM	–	COC(=O)NCCCN1c2ccccc2CCc2ccc(Cl)cc21 [Example 9, Methyl (3-(3-chloro-10,11-dihydro-5H-dibenzo[b,f]azepin-5-yl)propyl)carbamate]
–	INACTIVE	COc1ccc(S(=O)(=O)NCCCN2c3ccccc3Sc3ccc(Cl)cc32)cc1 [Example 11, N-(3-(2-chloro-10H-phenothiazin-10-yl)propyl)-4-methoxybenzenesulfonamide]
–	INACTIVE	O=S(=O)(NCCCN1c2ccccc2CCc2ccc(Cl)cc21)c1ccc(Cl)cc1F [Example 28, N-(3-(3-chloro-10,11-dihydro-5H-dibenzo[b,f]azepin-5-yl)propyl)-4-chloro-2-fluorobenzenesulfonamide]

Same assay, conditions: Homo sapiens, NCI-H1650, 48 hours after drug treatment, MTT

SMILES	IC50
Cc1ccc(S(=O)(=O)NCCCN2c3ccccc3Sc3ccc(Cl)cc32)cc1 [Example 3, N-(3-(2-chloro-10H-phenothiazin-10-yl)propyl)-4-methylbenzenesulfonamide]	20 µM
COC(=O)NCCCN1c2ccccc2Sc2ccc(Cl)cc21 [Example 4, Methyl (3-(2-chloro-10H-phenothiazin-10-yl)propyl)carbamate]	10 µM
Cc1ccc(S(=O)(=O)NCCCN2c3ccccc3CCc3ccc(Cl)cc32)cc1 [Example 8, N-(3-(3-chloro-10,11-dihydro-5H-dibenzo[b,f]azepin-5-yl)propyl)-4-methylbenzenesulfonamide]	20 µM
CN(C)C(=O)NCCCN1c2ccccc2CCc2ccc(Cl)cc21 [Example 10, 3-(3-(3-chloro-10,11-dihydro-5H-dibenzo[b,f]azepin-5-yl)propyl)-1,1-dimethylurea]	20 µM
O=S(=O)(NCCCN1c2ccccc2Sc2ccc(Cl)cc21)c1cc(F)cc(F)c1 [Example 13]	18 µM
N#Cc1ccc(S(=O)(=O)NCCCN2c3ccccc3Sc3ccc(Cl)cc32)cc1 [Example 14, N-(3-(2-chloro-10H-phenothiazin-10-yl)propyl)-4-cyanobenzenesulfonamide]	40 µM
O=S(=O)(NCCCN1c2ccccc2Sc2ccc(Cl)cc21)c1ccc(Cl)cc1 [Example 15, 4-Chloro-N-(3-(2-chloro-10H-phenothiazin-10-yl)propyl)benzenesulfonamide]	20 µM
CN(C)C(=O)NCCCN1c2ccccc2Sc2ccc(Cl)cc21 [Example 17, 3-(3-(2-Chloro-10H-phenothiazin-10-yl)propyl)-1,1-dimethylurea]	> 50 µM
NCCCN1c2ccccc2CCc2ccccc21 [Example 19, 3-(10,11-dihydro-5H-dibenzo[b,f]azepin-5-yl)propan-1-aminium chloride]	24.4 µM
O=S(=O)(NCCCN1c2ccccc2CCc2ccc(Cl)cc21)c1ccc(F)cc1 [Example 20, N-(3-(3-chloro-10,11-dihydro-5H-dibenzo[b,f]azepin-5-yl)propyl)-4-fluorobenzenesulfonamide]	> 40 µM
O=S(=O)(NCCCN1c2ccccc2CCc2ccc(Cl)cc21)c1ccc(C(F)(F)F)cc1 [Example 21, N-(3-(3-chloro-10,11-dihydro-5H-dibenzo[b,f]azepin-5-yl)propyl)-4-(trifluoromethyl)benzenesulfonamide]	15.3 µM
N#Cc1ccc(S(=O)(=O)NCCCN2c3ccccc3CCc3ccc(Cl)cc32)cc1 [Example 22, N-(3-(3-chloro-10,11-dihydro-5H-dibenzo[b,f]azepin-5-yl)propyl)-4-cyanobenzenesulfonamide]	11.1 µM
O=S(=O)(NCCCN1c2ccccc2CCc2ccc(Cl)cc21)c1ccc(Cl)cc1 [Example 23, 4-Chloro-N-(3-(3-chloro-10,11-dihydro-5H-dibenzo[b,f]azepin-5-yl)propyl)benzenesulfonamide]	~25 µM
CS(=O)(=O)c1ccc(S(=O)(=O)NCCCN2c3ccccc3CCc3ccc(Cl)cc32)cc1 [Example 24, N-(3-(3-chloro-10,11-dihydro-5H-dibenzo[b,f]azepin-5-yl)propyl)-4-(methylsulfonyl)benzenesulfonamide]	15.1 µM
O=S(=O)(NCCCN1c2ccccc2CCc2ccccc21)c1ccc(Cl)cc1 [Example 35, 4-chloro-N-(3-(10,11-dihydro-5H-dibenzo[b,f]azepin-5-yl)propyl)benzenesulfonamide]	~20 µM
O=S(=O)(NCCCN1c2ccccc2CCc2ccccc21)c1ccc(C(F)(F)F)cc1 [Example 36, N-(3-(10,11-dihydro-5H-dibenzo[b,f]azepin-5-yl)propyl)-4-(trifluoromethyl)benzenesulfonamide]	~15 µM

Other lines, results leading:

IC50	SMILES
< 40 µM	COc1ccc(S(=O)(=O)NCCCN2c3ccccc3CCc3ccc(Cl)cc32)cc1 [Example 25, N-(3-(3-chloro-10,11-dihydro-5H-dibenzo[b,f]azepin-5-yl)propyl)-4-methoxybenzenesulfonamide]
> 40 µM	O=S(=O)(NCCCN1c2ccccc2CCc2ccc(Cl)cc21)c1ccc(Cl)cc1Cl [Example 26, 2,4-dichloro-N-(3-(3-chloro-10,11-dihydro-5H-dibenzo[b,f]azepin-5-yl)propyl)benzenesulfonamide]
~25 µM	O=S(=O)(NCCCN1c2ccccc2CCc2ccc(Cl)cc21)c1ccc(Cl)c(Cl)c1 [Example 29, 3,4-dichloro-N-(3-(3-chloro-10,11-dihydro-5H-dibenzo[b,f]azepin-5-yl)propyl)benzenesulfonamide]
~20 µM	O=S(=O)(NCCN1c2ccccc2CCc2ccc(Cl)cc21)c1ccc(Cl)cc1 [Example 33, 4-chloro-N-(2-(3-chloro-10,11-dihydro-5H-dibenzo[b,f]azepin-5-yl)ethyl)benzenesulfonamide]
~20 µM	O=S(=O)(NCCN1c2ccccc2CCc2ccc(Cl)cc21)c1ccc(C(F)(F)F)cc1 [Example 34, N-(2-(3-chloro-10,11-dihydro-5H-dibenzo[b,f]azepin-5-yl)ethyl)-4-(trifluoromethyl)benzenesulfonamide]
~25 µM	O=S(=O)(NCCN1c2ccccc2CCc2ccc(Cl)cc21)c1ccc(OC(F)(F)F)cc1 [Example 37, N-(2-(3-chloro-10,11-dihydro-5H-dibenzo[b,f]azepin-5-yl)ethyl)-4-(trifluoromethoxy)benzenesulfonamide]
~10 µM	O=S(=O)(NCCCN1c2ccccc2CCc2cc(Cl)ccc21)c1ccc(C(F)(F)F)cc1 [Example 38, N-(3-(2-chloro-10,11-dihydro-5H-dibenzo[b,f]azepin-5-yl)propyl)-4-(trifluoromethyl)benzenesulfonamide]
~10 µM	O=S(=O)(NCCCN1c2ccccc2CCc2ccc(Cl)cc21)c1cccc(C(F)(F)F)c1 [Example 39, N-(3-(3-chloro-10,11-dihydro-5H-dibenzo[b,f]azepin-5-yl)propyl)-3-trifluoromethylbenzenesulfonamide]
~15 µM	O=[N+]([O-])c1ccc(S(=O)(=O)NCCCN2c3ccccc3CCc3ccc(Cl)cc32)cc1 [Example 40, N-(3-(3-chloro-10,11-dihydro-5H-dibenzo[b,f]azepin-5-yl)propyl)-4-nitrobenzenesulfonamide]
~25 µM	O=S(=O)(NCCN1c2ccccc2Sc2ccc(Cl)cc21)c1ccc(C(F)(F)F)cc1 [Example 41, 4-trifluoromethyl-N-(2-(2-chloro-10H-phenothiazin-10-yl)ethyl)benzenesulfonamide]
~25 µM	O=S(=O)(NCCN1c2ccccc2Sc2ccc(Cl)cc21)c1ccc(OC(F)(F)F)cc1 [Example 42, 4-trifluoromethoxy-N-(2-(2-chloro-10H-phenothiazin-10-yl)ethyl)benzenesulfonamide]
~35 µM	Nc1ccc2c(c1)N(CCCNS(=O)(=O)c1ccc(C(F)(F)F)cc1)c1ccccc1CC2 [Example 43, N-(3-(3-amino-10,11-dihydro-5H-dibenzo[b,f]azepin-5-yl)propyl)-4-(trifluoromethyl)benzenesulfonamide]
~30 µM	[N-]=[N+]=Nc1ccc2c(c1)N(CCCNS(=O)(=O)c1ccc(C(F)(F)F)cc1)c1ccccc1CC2 [Example 44, N-(3-(3-azido-10,11-dihydro-5H-dibenzo[b,f]azepin-5-yl)propyl)-4-(trifluoromethyl)benzenesfulfonamide]
~25 µM	O=S(=O)(NCCCN1c2ccccc2CCc2ccc(Cl)cc21)c1ccccc1 [Example 45, N-(3-(3-chloro-10,11-dihydro-5H-dibenzo[b,f]azepin-5-yl)propyl)benzenesulfonamide]
~30 µM	O=S(=O)(NCCN1c2ccccc2Sc2ccccc21)c1ccc(OC(F)(F)F)cc1 [Example 46, N-(2-(10H-phenothiazin-10-yl)ethyl)-4-trifluoromethoxybenzenesulfonamide]
~30 µM	O=S(=O)(NCCN1c2ccccc2Sc2ccccc21)c1ccc(Cl)cc1 [Example 47, N-(2-(10H-phenothiazin-10-yl)ethyl)-4-chlorobenzenesulfonamide]
~15 µM	O=S(=O)(NCCC=C1c2ccccc2CCc2ccccc21)c1ccc(Cl)cc1 [Example 50, 4-Chloro-N-(3-(10,11-dihydro-5H-dibenzo[a,d][7]annulen-5-ylidene)propyl)benzenesulfonamide]
~20 µM	O=S(=O)(NCCC=C1c2ccccc2CCc2ccccc21)c1ccc(OC(F)(F)F)cc1 [Example 51, N-(3-(10,11-dihydro-5H-dibenzo[a,d][7]annulen-5-ylidene)propyl)-4-(trifluoromethoxy)benzenesulfonamide]
~10 µM	O=S(=O)(NCCCN1c2ccc(Cl)cc2CCc2cc(Cl)ccc21)c1ccc(Cl)cc1 [Example 52, 4-Chloro-N-(3-(2,8-dichloro-10,11-dihydro-5H-dibenzo[b,f]azepin-5-yl)propyl)benzenesulfonamide]
~10 µM	O=S(=O)(NCCCN1c2ccc(Cl)cc2CCc2cc(Cl)ccc21)c1ccc(OC(F)(F)F)cc1 [Example 53, 4-Trifluoromethoxy-N-(3-(2,8-dichloro-10,11-dihydro-5H-dibenzo[b,f]azepin-5-yl)propyl)benzenesulfonamide]
